Patent US10525073B2, “Method for improving kidney and/or heart function in patients with kidney disease” (MacKay Memorial Hospital, priority 2015, dated 2020)

Tests used:
CKD rats [1] = assay: Cardiac muscle strain measurement by heart ultrasound in CKD rats; assay type: in vivo, Sprague Dawley rats; conditions: vs control animals
Experimental: SD rats (about 10 weeks old) scheduled to undergo 5/6 nephrectomy or sham surgery were anesthetized by Zoletil 50/Xylazine (6 mg/1.3 mg/Kg, i.p.). Then, the left kidney was exposed, and the upper and lower poles were tied with a suture line, followed by right nephrectomy. The peritoneum and skin were then sutured, and the animals were returned to their individual cages. For animals underwent sham surgery, the left kidney was exposed in similar manner, but was then placed back into the abdominal cavity without further treatment, peritoneum and skin were then sutured. Two weeks after sham or 5/6 nephrectomy surgery, the animals were subjected to a 24-hour urine collection and non-invasive tail blood pressure measurement every 4 weeks. […] Once the animal became unconscious, it was then connected to heart ultrasound machine (Vivid i, General Electric Company, US) and heart function paraments including changes in diastolic parameter-Tissue Velocity Imaging (TVI_V) and E/A ratio, the strain in cardia muscle (C_strain), and left ventrical mass ([…]) were respectively measured. […] Blood and urine samples were respectively collected on designated days and analyzed for the levels of blood urine nitrogen (BUN), serum creatine (CR), and hepatic enzymes (i.e., alanine aminotransferase (ALT) and aspartate aminotransferase (AST)). […]

CKD rats [2] = assay: Uremic toxins (indoxyl sulfate, P-cresyl sulfate) in serum of CKD rats; assay type: in vivo, Sprague Dawley rats; conditions: serum collected from CKD rats
Experimental: SD rats (about 10 weeks old) scheduled to undergo 5/6 nephrectomy or sham surgery were anesthetized by Zoletil 50/Xylazine (6 mg/1.3 mg/Kg, i.p.). Then, the left kidney was exposed, and the upper and lower poles were tied with a suture line, followed by right nephrectomy. The peritoneum and skin were then sutured, and the animals were returned to their individual cages. […] Two weeks after sham or 5/6 nephrectomy surgery, the animals were subjected to a 24-hour urine collection and non-invasive tail blood pressure measurement every 4 weeks. Four weeks after the surgery, rats underwent 5/6 nephrectomy or shame surgery were randomly assigned into two groups, i.e., the control and the telbivudine groups, in which the control group received saline treatment, and rats in the telbivudine group received telbivudine (10 mg/mL/Kg) treatment for 8 or 12 weeks. Animals were then sacrificed, and kidney and heart biopsy samples were obtained.
5/6 nephrectomy is a procedure in which one kidney of a test animal is removed and 2/3 of the remaining kidney is ablated, thereby mimics the progressive renal failure after loss of renal mass in humans. Briefly, approximately 50% of the remaining kidney of the rat was removed by polar excision 1-2 weeks after uni-nephrectomy. Then, the animals were randomly assigned to two groups, the telbivudine group and the control group. Rats in the telbivudine group were orally fed with telbivudine (at a dosage of 100 mg/Kg) for 4, 8 or 12 weeks, while the animals in the control group were given just the water. Blood and urine samples were respectively collected on designated days and analyzed for the levels of blood urine nitrogen (BUN), serum creatine (CR), and hepatic enzymes (i.e., alanine aminotransferase (ALT) and aspartate aminotransferase (AST)). Heart function was determined by monitoring the changes in diastolic parameter—Tissue Velocity Imaging (TVI_V), E/A ratio, and the strain in cardia muscle (C_strain), left ventrical mass (LVMASS). Animals were sacrificed after the experiments were finished, and kidney biopsy samples were obtained.
Indoxyl sulfate (IS) and P-cresyl sulfate (PCS) are uremic toxins that accumulate in the serum of CKD patients, and are known factors for causing heart problems in the CKD subjects.

Cc1cn([C@@H]2C[C@@H](O)[C@H](CO)O2)c(=O)[nH]c1=O [telbivudine]
C-strain values (strain in cardia muscle) (CKD rats [1]; CKD animals treated with telbivudine for 8 weeks): significant improvement | C-strain values (strain in cardia muscle) (CKD rats [1]; CKD animals treated with telbivudine for 12 weeks): significant improvement | free level of Indoxyl sulfate (IS) (CKD rats [2]): effectively reduced | free level of P-cresyl sulfate (PCS) (CKD rats [2]): effectively reduced | total level of Indoxyl sulfate (IS) (CKD rats [2]): effectively reduced | total level of P-cresyl sulfate (PCS) (CKD rats [2]): effectively reduced
